Legend:
[1] = test system: Plasmodium vinckei vinckei; assay: In vivo activity in mice infected with Plasmodium vinckei vinckei: parasitaemia at D4 after 4 days of oral treatment
Excerpt: Female “Swiss” mice, aged eight weeks and one day, are inoculated with parasites of Plasmodium vinckei vinckei type (Rodhain, 1952). The mice are acclimatized beforehand for two weeks. The mice are given food and drink ad libitum.
The Plasmodium vinckei vinckei strain is maintained by weekly infection in the mouse with 10^7 parasitized erythrocytes suspended in a phosphate buffered saline (0.9%).
(§1) This administration is repeated on the following three days (D1 to D3) (Peter, 1987). When the two products are administered in combination, the artesunate is administered first, the ferroquine is administered second, 45 minutes later. On the fourth day, a blood smear is taken from the tail of the mouse. The sample is fixed on a plate. The number of parasitized blood cells is counted under a microscope. The parasitaemia is expressed as percentage of infected erythrocytes present in the sample on a sample of 1000 cells. Six or seven mice are used per dose.
The IC50 is defined as the concentration in mg/kg/day which inhibits the blood parasitaemia by 50% at the fourth day (D4) after infection (D0) and four days of treatment (D0,D1,D2,D3). 0% inhibition corresponds to the mean of the parasitaemias observed in the untreated infected mice. […]
The IC50 of ferroquine is determined after administration of concentrations of between 1 and 10 mg/kg/day. […]

[2] = test system: Plasmodium vinckei vinckei; assay: Mortality / survival and curative dose in mice infected with Plasmodium vinckei vinckei; assay type: in vivo; conditions: oral, 4 days of treatment, compounds administered separately
Description: as §1, with “On the first day of treatment (D0), one hour after infection (10^7 parasitized erythrocytes suspended in a phosphate buffered saline (0.9%)), the animal is administered, orally, as appropriate, with ferroquine, with artesunate or with a mixture of the two active ingredients. This” for “This”
Each day, from day 5 after infection, the number of dead mice is counted so as to determine the percentage mortality (number of mice dead relative to the number of mice of the batch considered). The curative dose is the first dose at which all the mice of the batch survive.

For `C[C@@H]1CC[C@H]2[C@@H](C)C(OC(=O)CCC(=O)[O-])O[C@@H]3O[C@]4(C)CC[C@@H]1C32OO4.[Na+]` (stereo partly drawn) [artesunate], the “IC50 (dose which inhibits the blood parasitaemia by 50% at D4)” value ([1]; 4 days of treatment (D0-D3), parasitaemia at D4, compounds administered separately, linear interpolation of dose-response curve) was 2.79 mg/kg/day, the “Parasitaemia (as %), mean” value ([1]; artesunate 6 mg/kg/day alone (ferroquine 0), 4 days, infected erythrocytes at fourth day after infection) was 7.1% and the “curative dose (first dose at which all the mice of the batch survive)” value [2] was “greater than 15 mg/kg/day”.

Reference: patent US20120258945A1, “Association Between Ferroquine and an Artemisinine Derivative for Treating Malaria” (priority 2005, published 2012)
